# Source: the NIST ThermoML archive (doi:10.1016/j.fluid.2010.06.007)
# ± gives the expanded uncertainty stated by the source.
# Details: 298.15 K; 101.33 kPa; Liquid; Vibrating tube method
row,SMILES,molar volume [m3/mol]
1,C1CCCCC1 [cyclohexane],0.0001088 ± 5e-08
2,C1CCOC1 [tetrahydrofuran],8.174e-05 ± 4e-08
3,ClC(Cl)Cl [trichloromethane],8.071e-05 ± 4e-08
